Converted amounts (≈) assume the structure as drawn. Like-named read-outs stand apart in the source and are kept apart here.
Columns and labels:
Assay type in all cases: cell-based
[1] = system: penicillin-, erythromycin- and tetracycline-resistant Streptococcus pneumoniae (ATCC 700677), ARSP; experiment: microbe, parasite or virus in culture
[2] = system: Staphylococcus aureus MSSA (Newman); experiment: broth microdilution MIC assay, Staphylococcus aureus MSSA (Newman); settings: for MIC: Staphylococcus aureus; for Antibacterial activity Staphylococcus aureus (MSSA): MIC100 class score, broth microdilution
[3] = system: Staphylococcus epidermidis (PCI 1200, ATCC12228); experiment: broth microdilution MIC assay, Staphylococcus epidermidis; settings: ATCC12228, read-out: Antibacterial activity SE (Staphylococcus epidermidis)
[4] = system: Streptococcus pneumoniae (Chester, ATCC49619); experiment: broth microdilution MIC assay, Streptococcus pneumoniae; settings: MIC100 class score, 24 h
[5] = system: Staphylococcus aureus MRSA (COL); experiment: broth microdilution MIC assay, Staphylococcus aureus MRSA (COL); settings: for MIC: Staphylococcus aureus, MRSA; for Antibacterial activity Staphylococcus aureus (MRSA): MIC100 class score, broth microdilution
[6] = system: Human hepatocytes (HepaRG cells); experiment: human cytotoxicity assay in vitro (CellTiter-Glo), hepatocytes; settings: cytotoxicity class
[7] = system: Bacillus subtilis (Marburg strain, ATCC6051); experiment: microbe, parasite or virus in culture; settings: ATCC6051, read-out: Antibacterial activity BS (Bacillus substilis)
[8] = ATCC700677, read-out: Antibacterial activity ARSP (multi-drug resistant-SP)
[9] = read-out: Antibacterial activity MSSA (Staphylococcus aureus MSSA)
[10] = read-out: Antibacterial activity MRSA (Staphylococcus aureus MRSA)
[11] = 24 h, read-out: Antibacterial activity Staphylococcus aureus (MSSA)
[12] = 24 h, read-out: Antibacterial activity Staphylococcus aureus (MRSA)

Row | Structure (SMILES) | MIC [2, 9] | MIC [3] | Antibacterial activity Streptococcus pneumoniae [4] | MIC [5, 10] | cytotoxicity cell line H (hepatocytes) [6] | other results
1 | Cc1[nH]c(-c2ccc(-c3cccc(C(F)(F)F)c3)o2)nc1-c1ccc(F)cc1 [Compound 38] | 1 to 3 µg/mL (≈ 2.59 to 7.77 µM) | 3 to 10 µg/mL (≈ 7.77 to 25.9 µM) | 3 (MIC100 of 2-5 μg/ml) | 1 to 3 µg/mL (≈ 2.59 to 7.77 µM) |  | MIC [1, 8]: < 1 µg/mL
2 | Cc1[nH]c(-c2ccc(-c3cc(C(F)(F)F)ccc3Cl)o2)nc1-c1ccccc1 [Compound 40] |  |  |  |  | 2 | 
3 | Cc1[nH]c(-c2ccc(-c3ccc(Cl)c(C(F)(F)F)c3)o2)nc1-c1ccc(F)cc1 [Compound 42] | 1 to 3 µg/mL (≈ 2.38 to 7.13 µM) | 3 to 10 µg/mL (≈ 7.13 to 23.8 µM) |  |  |  | MIC ([1]; ATCC700677, MIC activity class, read-out: Antibacterial activity ARSP (multi-drug resistant-SP)): < 1 µg/mL; MIC [7]: 1 to 3 µg/mL (≈ 2.38 to 7.13 µM)
4 | Cc1nc(-c2ccc(-c3ccc(Cl)c(OC(F)(F)F)c3)o2)[nH]c1-c1ccc(Cl)cc1 [Compound 44] | 1 to 3 µg/mL (≈ 2.21 to 6.62 µM) | 11 to 201 µg/mL (≈ 24.3 to 443 µM) |  | 11 to 201 µg/mL (≈ 24.3 to 443 µM) | 2 | MIC [7]: 1 to 3 µg/mL (≈ 2.21 to 6.62 µM); Antibacterial activity Staphylococcus aureus (MRSA) ([5]; 24 h): 2 (MIC100 of 11-201 μg/ml)
5 | Cc1[nH]c(-c2ccc(-c3ccc(C(F)(F)F)cc3)s2)nc1-c1ccccc1 [Compound 46] | 11 to 201 µg/mL (≈ 28.6 to 523 µM) |  | 3 (MIC100 of 2-5 μg/ml) |  |  | MIC [1, 8]: 2 to 5 µg/mL (≈ 5.2 to 13 µM); Antibacterial activity Staphylococcus aureus (MSSA) ([2]; 24 h): 2 (MIC100 of 11-201 μg/ml)
6 | Cc1[nH]c(-c2ccc(-c3ccc(C(F)(F)F)c(Cl)c3)o2)nc1-c1ccc(F)cc1 [Compound 49] | 3 to 10 µg/mL (≈ 7.13 to 23.8 µM) | 11 to 201 µg/mL (≈ 26.1 to 478 µM) | 3 (MIC100 of 2-5 μg/ml) | 3 to 10 µg/mL (≈ 7.13 to 23.8 µM) | 3 | MIC [1, 8]: < 1 µg/mL; Antibacterial activity Staphylococcus aureus (MSSA) ([2]; 24 h): 3 (MIC100 of 3-10 μg/ml); Antibacterial activity Staphylococcus aureus (MRSA) ([5]; 24 h): 2 (MIC100 of 11-201 μg/ml)
7 | Cc1[nH]c(-c2ccc(-c3ccc(OC(F)(F)F)c(Cl)c3)o2)nc1-c1ccc(Cl)cc1 [Compound 50] | 3 to 10 µg/mL (≈ 6.62 to 22.1 µM) | 20 to 50 µg/mL (≈ 44.1 to 110 µM) |  | 11 to 201 µg/mL (≈ 24.3 to 443 µM) |  | MIC [2, 11]: 3 to 10 µg/mL (≈ 6.62 to 22.1 µM); MIC [5, 12]: 11 to 201 µg/mL (≈ 24.3 to 443 µM)
8 | Cc1ccc(-c2ccc(-c3nc(-c4ccccc4)c(C)[nH]3)o2)cc1 [Compound 52] |  |  |  |  | 3 | MIC [5, 12]: 20 to 50 µg/mL (≈ 63.6 to 159 µM)
9 | CCc1ccc(-c2ccc(-c3nc(-c4ccccc4)c(C)[nH]3)o2)cc1 [Compound 53] | 3 to 10 µg/mL (≈ 9.13 to 30.4 µM) |  |  | 20 to 50 µg/mL (≈ 60.9 to 152 µM) | 3 | MIC [2, 11]: 3 to 10 µg/mL (≈ 9.13 to 30.4 µM); MIC [5, 12]: 20 to 50 µg/mL (≈ 60.9 to 152 µM)
10 | Cc1[nH]c(-c2cc(C)n(-c3ccc(C(C)C)cc3)c2C)nc1-c1ccccc1 [Compound 58] |  |  |  | 20 to 50 µg/mL (≈ 54.1 to 135 µM) | 3 | 
11 | Cc1[nH]c(-c2cc(C)n(-c3ccc4c(c3)CCC4)c2C)nc1-c1ccccc1 [Compound 59] |  |  | 3 (MIC100 of 2-5 μg/ml) |  | 2 | 
12 | Cc1ccccc1-c1ccc(-c2nc(-c3ccccc3)c(C)[nH]2)o1 [Compound 61] |  |  |  |  | 3 | 
13 | Cc1cccc(C)c1-c1ccc(-c2nc(-c3ccccc3)c(C)[nH]2)o1 [Compound 62] |  |  |  |  | 3 | 
14 | FC(F)(F)Oc1ccccc1-c1ccc(-c2ncc(-c3ccccc3)[nH]2)o1 [Compound 63] | 3 to 10 µg/mL (≈ 8.1 to 27 µM) | 3 to 10 µg/mL (≈ 8.1 to 27 µM) | 3 (MIC100 of 2-5 μg/ml) | 3 to 10 µg/mL (≈ 8.1 to 27 µM) | 2 | Antibacterial activity Staphylococcus aureus (MSSA) ([2]; 24 h): 3 (MIC100 of 3-10 μg/ml)
15 | FC(F)(F)c1ccccc1-c1ccc(-c2nc(Cl)c(-c3ccccc3)[nH]2)o1 [Compound 65] | 11 to 201 µg/mL (≈ 28.3 to 517 µM) |  |  |  | 2 | Antibacterial activity Staphylococcus aureus (MSSA) ([2]; 24 h): 2 (MIC100 of 11-201 μg/ml)
16 | FC(F)(F)Oc1ccccc1-c1ccc(-c2nc(-c3ccccc3Cl)c[nH]2)o1 [Compound 67] |  | 11 to 201 µg/mL (≈ 27.2 to 497 µM) | 3 (MIC100 of 2-5 μg/ml) |  | 2 | MIC [1, 8]: 6 to 10 µg/mL (≈ 14.8 to 24.7 µM)
17 | Cc1nc(-c2ccc(-c3ccccc3N(C)C)o2)[nH]c1-c1ccccc1 [Compound 71] |  |  |  |  | 3 | 
18 | Cc1[nH]c(-c2coc(-c3ccccc3C(F)(F)F)c2)nc1-c1ccccc1 [Compound 72] |  |  | 2 (MIC100 of 6-10 μg/ml) |  | 3 | 
19 | Cc1nc(-c2ccc(-c3ccc(F)cc3F)o2)[nH]c1-c1ccc(O)cc1 [Compound 80] |  |  | 3 (MIC100 of 2-5 μg/ml) |  |  | Antibacterial activity Staphylococcus aureus (MSSA) ([2]; 24 h): 3 (MIC100 of 3-10 μg/ml); Antibacterial activity Staphylococcus aureus (MRSA) ([5]; 24 h): 2 (MIC100 of 11-201 μg/ml)
20 | CCCc1[nH]c(-c2ccc(-c3ccc(O)cc3C(F)(F)F)o2)nc1C [Compound 110] |  |  | 3 (MIC100 of 2-5 μg/ml) |  |  | Antibacterial activity Staphylococcus aureus (MRSA) ([5]; 24 h): 3 (MIC100 of 3-10 μg/ml)

— patent US10322110B2, “Imidazole-based antimicrobial agents” (priority 2014, dated 2019)
